Source: US20060106099A1, “Novel inhibitors of ubiquitin isopeptidases” (priority 2002, published 2006)
Like-named read-outs stand apart in the source and are kept apart here.

Columns and labels:
ubiquitin isopeptidases [1] = experiment: In vitro isopeptidase activity in HCT 116 lysates, Ub-PEST; assay type: biochemical, human; settings: HCT 116 lysates, 45 min
Experimental: (§1) Isopeptidase Assay. It was hypothesized that the punaglandins would inhibit ubiquitin-isopeptidase activity of the proteasome pathway as does the prostaglandin, Δ^12-PGJ2 (1), but with greater potency because of the chlorinated C-10. To validate this theory, cellular isopeptidase enzymatic activity was measured in vitro after treatment with individual punaglandins, PNG 2 (6), PNG 3 (7), and Z-PNG 4 (9) and in vivo after individual treatment with PNG 4 (8) and PNG 6 (10). This activity was determined utilizing the simple isopeptidase substrate, ubiquitin-PEST (Ub-PEST), a full/length ubiquitin (Ub) molecule fused with an 18-amino acid C-terminal peptide extension that most isopeptidases use as a substrate. The polypeptide extension contains regions rich in Pro (P), Glu (E), Ser (S), and Thr (T) residues called PEST motifs that are responsible for rapid degradation of these and other unstable proteins. Ub isopeptidases specifically cleave this peptide extension, yielding free, full-length Ub. Both the fused Ub-PEST (10.5 kDa) and the cleaved, free Ub (8.5 kDa) can be observed via immunochemical detection.
In Vitro Isopeptidase Activity. PNG 2 (6), PNG 3 (7), and Z-PNG 4 (9) were initially analyzed for isopeptidase activity in vitro in HCT 116 lysates. Cells were lysed with isopeptidase activity buffer and protein concentration adjusted to 0.3 mg/mL per sample. Each sample was subsequently incubated with 2 μM, 6 μM, 20 μM, 60 μM, or 200 μM of PNG 2 (6), PNG 3 (7), Z-PNG 4 (9), Δ^12-PGJ2 (1), and PGA1 (2) in addition to 50 μg/ml of Ub-PEST. Negative control cells were treated with vehicle (0.5% DMSO) and equivalent Ub-PEST. […] The amount of fused Ub-PEST and free Ub product was determined by SDS-PAGE fractionation.

HCT 116 (p53 wt) = experiment: MTS cytotoxicity, HCT 116 (p53 wt); assay type: cell-based; settings: Homo sapiens, 48 h
Excerpt: (§2) Cytotoxicity in Human Colon Tumor (HCT) Cell Lines. To determine if punaglandins elicit cytotoxicity independently of the tumor-suppressor p53, as do other dienone prostaglandins, several cytotoxicity assays were employed. First, cell death effects of all isolated punaglandins were investigated in pairs of isogenic colon cancer cell lines, the HCT 116^+/+ competent cell line and HCT 116^−/− null cell lines. HCT 116^+/+ cells are homozygous for p53^+/+ and p21^+/+; where as, HCT 116^−/− cells lack both alleles for p53 (p53^−/−) or p21 (p21^−/−).
(§3) Each cell line was seeded simultaneously in 96-well plates and incubated for 24 h before treatment with individual punaglandins at various concentrations for 48 additional h. Cytotoxicity was determined using MTS and absorbances were recorded at 490 nm. Half maximal effective concentrations (EC50) and Log EC50s were calculated from a concentration-response curve generated using GraphPad Prism (Table 1).

HCT 116 (p53^−/−) = experiment: MTS cytotoxicity, HCT 116 (p53−/−); assay type: cell-based; settings: Homo sapiens, log of EC50 in μM, 48 h, read-out: Log EC50 +/− Standard Error of Log EC50, HCT 116 (p53−/−) (converted)
Excerpt: as §2, §3

HCT 116 (p21 wt) = experiment: MTS cytotoxicity, HCT 116 (p21 wt); assay type: cell-based; settings: Homo sapiens, log of EC50 in μM, 48 h, read-out: Log EC50 +/− Standard Error of Log EC50, HCT 116 (p21 wt) (converted)
Excerpt: as §2, §3

HCT 116 (p21^−/−) = experiment: MTS cytotoxicity, HCT 116 (p21−/−); assay type: cell-based; settings: Homo sapiens, log of EC50 in μM, 48 h, read-out: Log EC50 +/− Standard Error of Log EC50, HCT 116 (p21−/−) (converted)
Excerpt: as §2, §3

ubiquitin isopeptidases [2] = experiment: Ubiquitin isopeptidase activity, Ub-PEST substrate, lysates of treated RKO and HCT 116 cells; assay type: cell-based, human; settings: cells treated 6, 20 or 60 μM, 12 h
Experimental: A) Inhibition of isopeptidase proteolysis of Ub-PEST substrate. RKO and HCT 116 cells were treated with DMSO vehicle, 6, 20, or 60 μM of Δ12-PGJ2, DBA, NSC-302979, or curcumin, 60 μM PGB1, 60 μM NSC-156236, or 60 μM DPTP for 12 h, 37° C. Cell lysates from each treatment were incubated with Ub-PEST, as described in materials and methods. Samples were fractionated by SDS-PAGE and proteins detected with ubiquitin epitopes immunochemically (HCT 116 ^+/+ western blot shown as example of raw data). […] B) Inhibition of isopeptidase activity by test panel compounds. Isopeptidase activity was determined by measuring via densitometry, the amount of Ub generated by isopeptidase cleavage of Ub-PEST. Bar graph patterns are DMSO vehicle (black), Δ12-PGJ2 (hatched), DBA (horizontal lines), NSC-302979 (white), PGB1 (diagonally downward right lines), and NSC-156236 (diagonally downward left lines). The amount of Ub generated in the vehicle treated sample (panel A, lane 2) is arbitrarily designated 100%.
Cellular isopeptidase enzymatic activity was measured with two assays that used different substrates. In one assay ubiquitin-PEST (Ub-PEST) was used, a full-length ubiquitin molecule with an 18 amino acid c-terminal peptide extension (total mass=10.5 kDa). Ubiquitin isopeptidases specifically cleave the 18 amino acid peptide extension, releasing full-length ubiquitin (8.5 kDa).
Briefly, 6×10^5 cells were incubated with 0-60 μM of test compounds for 12 hrs. Cells were lysed in 50 μL of 25 mM HEPES, 5 mM EDTA, 0.1% CHAPS, 5 mM ATP, pH 7.5. The protein concentration of each sample was adjusted to 0.3 mg/mL and incubated with 50 μg/mL Ub-PEST for 45 minutes at 25° C. Under these conditions, Ub-PEST hydrolysis occurs at a linear rate. 20 μL samples were mixed with 20 μL 2× Laemmli buffer, boiled briefly, and fractionated by SDSPAGE. Isopeptidase activity was monitored by determining the amount of product (8.5 kDa ubiquitin) formation.

ubiquitin isopeptidases [3] = experiment: Ubiquitin isopeptidase activity, z-LRGG-AMC substrate, lysates of treated RKO and HCT 116 cells; assay type: cell-based, human; settings: cells treated 6, 20 or 60 μM, 12 h
Experimental: RKO (upper) and HCT 116 ^+/+ cells (lower) were treated with DMSO vehicle, 6, 20, or 60 μM of Δ12-PGJ2, DBA, NSC-302979, or curcumin, 60 μM PGB1, 60 μM NSC-156236, or 60 μM DPTP for 12 h at 37° C. Cell lysates (0.5 mg/mL) from each treatment were incubated with the isopeptidase substrate, z-LRGG-AMC, for 3 h, 37° C. The amount of AMC cleaved by isopeptidase was determined fluorometrically, as described in Materials and Methods.
The second assay used a fluorescent tetrapeptide, z-LRGG-AMC, as a substrate that mimics the carboxy-terminus of ubiquitin. Isopeptidase activity hydrolyzes the bond between the c-terminal glycine and the fluorophore. This tetrapeptide also undergoes slow proteolysis by the catalytic subunit of the proteasome. To minimize this background rate of proteolysis cell lysates were incubated with 30 μM MG115 for 30 minutes at 4° C., prior to substrate incubation (>90% proteasome inhibition). Cells were teeated as above, lysed in 250 μL of lysis buffer per sample, and adjusted protein concentration to 0.5 mg/mL prior to incubation with MG115. Next, z-LRGG-AMC substrate was added and fluorescence was quantified of the AMC moiety cleaved by isopeptidase action.

[4] = system: polyubiquitin conjugates in RKO-E6 cells; experiment: Accumulation of polyubiquitin in RKO-E6 cells (immunoblot); assay type: cell-based, human; settings: EC80 or 60 μM, 6-24 h
Experimental: (§4) A) Accumulation of polyubiquitin. RKO-E6 cells were treated with DMSO vehicle for 24 h, 37° C., or with the concentrations of test compounds that gave 80% cell death (as determined by cell viability assay at 48 h) for 6, 12, or 24 h, 37° C. […] Schematic depicting p53 degradation via the proteasome pathway in RKO cells versus RKO-E6 cells. The activity of the HPV E6 oncoprotein hastens p53 degradation in RKO-E6 cells. ii. RKO and RKO-E6 cells were treated with vehicle, etoposide (50 μM), MG115 (20 μM), Δ12-PGJ2 (60 μM), NSC-302979 (20 μM, DBA (20 μM), curcumin (60 μM), PGB1 (60 μM), NSC-156236, (60 XM)or DPTP 60 μM for 6 h, 37° C. Lysates were fractionated by SDS-PAGE and their p53 content determined immunochemically. iii. p53 levels were measured by densitometry and the ratio of p53 protein in RKO-E6 cells/RKO cells calculated.
(§5) The medium was removed and cells lysed in 50 mM Tris, pH 7.4, 100 mM NaCl, 2 mM EDTA with 0.1% SDS, 0.1% deoxycholate, 1× complete protease inhibitor mixture. Protein concentration was measured by the Bradford method. Equal portions of the total cell lysate were fractionated from each sample (12.5 μg of protein) by SDS-PAGE. Proteins were transferred to poly(vinylidene difluoride) blocked with 5% (w/v) nonfat dry milk in Trisbuffered saline [20 mM Tris-HCl, pH 7.5, 100 mM sodium chloride, 0.1% (v/v) Tween 20]. Proteins were detected immunochemically by using primary antibodies directed against p53 (1:4000) or ubiquitin (1:1000), followed by horseradish peroxidase-conjugated secondary antibodies (1:4000). Antigen-antibody complexes were detected with enhanced chemiluminescence reagents. Gels were scanned and quantified intensities using Kodak 1D Image Analysis Software.

p53 = p53 accumulation, ratio RKO-E6 cells/RKO cells (immunoblot, densitometry); assay type: cell-based, human; settings: 6 h; etoposide 50 μM, MG115, NSC-302979, DBA 20 μM, others 60 μM
Experimental: as §4, §5

RKO cells = experiment: MTT cell viability assay, RKO cells; settings: 48 h; for cell death in RKO compared with RKO-E6 cells: MTT, isogenic pair; for EC50: Homo sapiens, RKO, read-out: Cytotoxic Potency (EC50) RKO
RKO-E6 cells = experiment: MTT cell viability assay, RKO-E6 cells; settings: for EC50: Homo sapiens, RKOE6, 48 h, read-out: Cytotoxic Potency (EC50) RKO-E6
Experimental: (§6) Cell viability was measured with MTT reagent as described in materials and methods.
(§7) Cell viability was detected by the MTT assay. Briefly, 1×10^5 cells were incubated per well of a sterile, 96-well assay plate with 0-60 μM of test compounds for 48 hours. MTT reagent was added to each well, final concentration of 0.5 mg/mL, and incubated for an additional 3 hours. The media was aspirated and remaining MTT reagent from each well and added 100 μL of HCl:isopropanol (1:24). The absorbance of each sample was measured at 405 nm.

HCT 116 +/+ cells = experiment: MTT cell viability assay, HCT 116 p53 +/+ cells; settings: for cell death in HCT 116 +/+ compared with HCT 116 −/− cells: 48 h, MTT, isogenic pair; for EC50: Homo sapiens, HCT-116, 48 h, read-out: Cytotoxic Potency (EC50) HCT +/+
Experimental: as §6, §7

HCT 116 −/− cells = experiment: MTT cell viability assay, HCT 116 p53 −/− cells; settings: Homo sapiens, HCT-116, 48 h, read-out: Cytotoxic Potency (EC50) HCT −/−
ubiquitin isopeptidases [5] = experiment: In vivo isopeptidase activity after treatment of RKO cells, Ub-PEST; assay type: cell-based, human; settings: 6 h
Experimental: as §1
In vivo Isopeptidase Activity. To investigate whether punaglandins can inhibit isopeptidase activity in vivo, isopeptidase activity was analyzed after punaglandin treatment of RKO cells. PNG 4 (8) and PNG 6 (10) were selected for in vivo investigation because they differ only in enone functionality, where (8) is a dienone and (10) an enone. RKO cells were incubated with 1 μM, 4 μM, or 7 μM of PNG 4 (8) and PNG 6 (10). […] As a positive control, cells were treated with a known isopeptidase inhibitor, shikoccin (SK). After 6 h drug treatment, cells were lysed and protein concentration adjusted to 0.3 mg/mL per sample. Each sample was subsequently incubated with 50 μg/mL of Ub-PEST. The reaction was terminated after 20 min and the respective amounts of Ub-PEST (10 kDa) and free Ub product (8.5 kDa) were determined by SDS-PAGE fractionation.

[6] = log of EC50 in μM, read-out: Log EC50 +/− Standard Error of Log EC50, HCT 116 (p53 wt) (converted)

| Compound | EC50 (HCT 116 (p53 wt); [6]) [µM] | EC50 (HCT 116 (p53^−/−)) [µM] | EC50 (HCT 116 (p21 wt)) [µM] | EC50 (HCT 116 (p21^−/−)) [µM] | inhibition of isopeptidase cleavage of Ub-PEST (ubiquitin isopeptidases [2]) | inhibition of z-LRGG-AMC hydrolysis by ubiquitin isopeptidases (ubiquitin isopeptidases [3]) | cellular accumulation of polyubiquitin conjugates [4] | ratio of p53 protein [RKO-E6 cells/RKO cells] (p53) | cell death in RKO compared with RKO-E6 cells (RKO cells) | EC50 (RKO cells) [nM] | EC50 (RKO-E6 cells) [nM] | cell death in HCT 116 +/+ compared with HCT 116 −/− cells (HCT 116 +/+ cells) | EC50 (HCT 116 +/+ cells) [nM] | EC50 (HCT 116 −/− cells) [nM] | also measured |
| --- | --- | --- | --- | --- | --- | --- | --- | --- | --- | --- | --- | --- | --- | --- | --- |
| CCCCC/C=C\C[C@@]1(O)C=C(Cl)C(=O)/C1=C\[C@H](OC(C)=O)[C@H](CCCC(=O)OC)OC(C)=O [Z-PNG 4] | 0.0316 | 0.0269 | 0.0295 | 0.0324 | – | – | – | – | – | – | – | – | – | – | concentration at which inhibition of Ub-PEST degradation is initially observed (ubiquitin isopeptidases [1]): 20 µM; concentration of complete (total) inhibition of Ub-PEST degradation (ubiquitin isopeptidases [1]): 60 µM; EC50 (HCT 116 (p53 wt); read-out: EC50, cytotoxicity in HCT 116 cell lines): 0.03 µM |
| CCCCC/C=C\C[C@@]1(O)C=C(Cl)C(=O)[C@@H]1[C@@H](OC(C)=O)[C@H](OC(C)=O)[C@H](CCCC(=O)OC)OC(C)=O [PNG 2] | 0.0398 | 0.0398 | 0.0468 | 0.0398 | – | – | – | – | – | – | – | – | – | – | – |
| O=C(C=Cc1ccccc1)C=Cc1ccccc1 [DBA, dibenzylideneacetone] | – | – | – | – | inhibited isopeptidase activity in a concentration dependent manner | inhibited ubiquitin isopeptidase activity | protein species with polyubiquitin conjugation accumulated in cells | approached unity | caused cell death with equal potency and efficacy | 7000 ± 600 | 6500 ± 1100 | caused cell death with equal potency | 3200 ± 100 | 3800 ± 100 | EC80, concentration that gave 80% cell death (RKO-E6 cells; cell viability assay at 48 h, RKO-E6 cells): 12000 nM |
| O=c1cc(-c2ccccc2)sc(-c2ccccc2)c1 [DPTP, 2,6-Diphenyl-4H-thiopyran-4-one] | – | – | – | – | did not inhibit isopeptidase activity | did not | did not cause appreciable cellular accumulation of ubiquitin conjugates | significantly less than unity | did not cause significant cell death | > 60000 | > 60000 | did not cause significant cell death | > 60000 | > 60000 | – |
| C[C@@H]1C[C@@H]([C@H](O)CC2CC(=O)NC(=O)C2)C(=O)[C@@H](C)C1 [cycloheximide] | – | – | – | – | – | – | – | – | – | – | – | – | – | – | effect on Ub-PEST degradation, control substances (ubiquitin isopeptidases [5]): 1:1 ratio of Ub-PEST to free Ub |
